Test results: article PMC3116189, “Novel Natural Inhibitors of CYP1A2 Identified by in Silico and in Vitro Screening” (International Journal of Molecular Sciences, 2011)
Counter-ions that a name gives are not always drawn.

molecular target: T1, CYP1A2 (Homo sapiens, UniProt P05177); test: in vitro; format: biochemical; details: 1 μM active ingredient, Rh CYP1A2-mediated phenacetin O-deethylation, test dataset of 202 herb ingredients
T1 sequence (P05177 1-516): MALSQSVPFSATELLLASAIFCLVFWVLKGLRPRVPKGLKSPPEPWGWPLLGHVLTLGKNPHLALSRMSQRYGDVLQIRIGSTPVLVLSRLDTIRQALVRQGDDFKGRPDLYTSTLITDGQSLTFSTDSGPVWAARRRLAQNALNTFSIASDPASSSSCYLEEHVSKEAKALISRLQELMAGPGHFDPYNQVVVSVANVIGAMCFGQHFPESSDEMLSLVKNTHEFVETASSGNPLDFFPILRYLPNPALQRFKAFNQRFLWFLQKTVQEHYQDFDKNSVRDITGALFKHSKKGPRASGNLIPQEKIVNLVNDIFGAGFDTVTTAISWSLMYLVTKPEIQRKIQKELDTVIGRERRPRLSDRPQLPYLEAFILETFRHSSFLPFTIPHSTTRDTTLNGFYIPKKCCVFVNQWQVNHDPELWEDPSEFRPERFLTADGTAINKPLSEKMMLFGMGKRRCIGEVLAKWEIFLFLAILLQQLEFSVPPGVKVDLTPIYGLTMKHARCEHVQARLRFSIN
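Also: recombinant CYP1A2 incubated for 1 h at 37 °C, with the reaction started by an NADPH-generating system.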

Compound	% of Control Indication Activity (Mean) [%]
Pinoresinol diglucoside	> 90
CC(=O)O[C@H]1C[C@]2(O)[C@@H]3CC[C@@H]4C[C@@H](O)CC[C@]4(C)[C@H]3CC[C@]2(C)[C@H]1c1ccc(=O)oc1 [Bufatalin]	> 90
COc1ccc([C@H]2OC[C@H]3[C@@H]2CO[C@H]3c2ccc(O[C@@H]3O[C@H](CO)[C@@H](O)[C@H](O)[C@H]3O)c(OC)c2)cc1OC [Forsythin]	> 90
Cc1c(O)c(C)c2oc(-c3ccc(O)cc3)cc(=O)c2c1O [Syzalterin]	> 90
COc1c2c(cc3oc(C)cc(=O)c13)OC(C(C)(C)O[C@@H]1O[C@H](CO)[C@@H](O)[C@H](O)[C@H]1O)C2 (stereo partly shown) [5-O-Methylvisammioside]	> 90
Astragaloside	> 90
COc1cc(-c2oc3cc(O)cc(O)c3c(=O)c2O[C@@H]2O[C@H](CO[C@@H]3O[C@@H](C)[C@H](O)[C@@H](O)[C@H]3O)[C@@H](O)[C@H](O)[C@H]2O[C@@H]2O[C@@H](C)[C@H](O)[C@@H](O)[C@H]2O)ccc1O [Typhaneoside]	> 90
COc1cc(/C=C/C(=O)O)ccc1O [Ferulic acid]	> 90

same assay, conditions: human, recombinant enzyme, pH 7.4

Compound	activity at 1 h, 1 μM [%]
COc1cc(/C=C/CO)cc(OC)c1O[C@@H]1O[C@H](CO)[C@@H](O)[C@H](O)[C@H]1O [Syringin]	> 90
C[C@@H]1O[C@@H](Oc2c(-c3ccc(O)cc3)oc3cc(O)cc(O)c3c2=O)[C@H](O)[C@H](O)[C@H]1O [zhang 911, Kaempferol-3-O-α-L-rhamnopyranoside]	> 90
O=C(O)/C=C/c1ccccc1 [Cinnamic acid]	> 90
O=c1c2ccccc2nc2n1CCc1c-2[nH]c2ccccc12 [Rutaecarpine]	> 90
COc1ccc(-c2oc3c(CC=C(C)C)c(O)cc(O)c3c(=O)c2O)cc1 [Icaritin]	> 90
C[C@@H]1O[C@@H](O[C@H]2[C@H](Oc3cc(O)c4c(c3)O[C@H](c3ccc(O)cc3)CC4=O)O[C@H](CO)[C@@H](O)[C@@H]2O)[C@H](O)[C@H](O)[C@H]1O [Naringin]	> 90
COc1cc(C(=O)O)ccc1O [Vanillic acid]	> 90
O=C(O)[C@H]1O[C@@H](Oc2cc3oc(-c4ccccc4)cc(=O)c3c(O)c2O)[C@H](O)[C@@H](O)[C@@H]1O [Baicalin]	> 90

same assay, conditions: human, recombinant enzyme, pH 7.4; 1 μM active ingredient, Rh CYP1A2-mediated phenacetin O-deethylation, test dataset of 202 herb ingredients; read-out: % of Control Indication Activity (Mean)

Compound	activity at 1 h, 1 μM [%]
C=CCc1ccc(O)c(OC)c1 [Eugenol]	> 90
COc1ccc2cc1Oc1ccc(cc1)C[C@H]1c3cc(c(OC)cc3CCN1C)Oc1c(O)c(OC)cc3c1[C@H](C2)N(C)CC3 [Fangchinoline]	> 90

same assay, conditions: human, recombinant human CYP1A2, pH 7.4, probe phenacetin (25 μM), O-deethylation to acetaminophen; 1 μM active ingredient, Rh CYP1A2-mediated phenacetin O-deethylation, test dataset of 202 herb ingredients; read-out: % of Control Indication Activity (Mean)

Compound	activity at 1 h, 1 μM [%]
CC(C)=CCC[C@](C)(O[C@@H]1O[C@H](CO)[C@@H](O)[C@H](O)[C@H]1O)[C@H]1CC[C@]2(C)[C@@H]1[C@H](O)C[C@@H]1[C@@]3(C)CC[C@H](O)C(C)(C)[C@@H]3[C@@H](O[C@@H]3O[C@H](CO)[C@@H](O)[C@H](O)[C@H]3O)C[C@]12C [Ginsenoside Rg1]	> 90
CC(C)=C1CC[C@@H](C)CC1=O [Pulegone]	> 90
COc1ccc(C[C@H]2COC(=O)[C@@H]2Cc2ccc(O[C@@H]3O[C@H](CO)[C@@H](O)[C@H](O)[C@H]3O)c(OC)c2)cc1OC [Arctiin]	> 90
COc1ccc(C=O)c(O)c1 [4-Methoxysalicylaldehyde]	> 90
O=c1c(-c2ccc(O[C@@H]3O[C@H](CO)[C@@H](O)[C@H](O)[C@H]3O)cc2)coc2cc(O)cc(O)c12 [Sophoricoside]	> 90
O=c1cc(-c2ccc(O)c(O)c2)oc2cc(O)cc(O)c12 [Luteolin]	87.4
CC1(C)CC[C@]2(C(=O)O)CC[C@]3(C)C(=CC[C@@H]4[C@@]5(C)CC[C@H](O)[C@@](C)(CO)[C@@H]5CC[C@]43C)[C@@H]2C1 [Hederagenin]	> 90
COC(=O)C1=CO[C@@H](O[C@@H]2O[C@H](CO)[C@@H](O)[C@H](O)[C@H]2O)[C@@H]2[C@@H](C)[C@@H](O)C[C@H]12 [Loganin]	> 90
Cc1coc2c1C(=O)C(=O)c1c-2ccc2c1CCCC2(C)C [Tanshinone IIA]	28.3
COc1cc2ccc(=O)oc2c(O)c1O [Fraxetin]	> 90
CC(=O)OC1CC2CCC1(C)C2(C)C (stereo not shown) [Bornylacetate]	> 90
COc1c(O[C@@H]2O[C@H](CO)[C@@H](O)[C@H](O)[C@H]2O)cc2occ(-c3ccc(O)cc3)c(=O)c2c1O [Tectoridin]	> 90
CC1(C)[C@@H](O)CC[C@]2(C)[C@H]3C(=O)C=C4[C@@H]5C[C@@](C)(C(=O)O)CC[C@]5(C)CC[C@@]4(C)[C@]3(C)CC[C@@H]12 [Glycyrrhetinic acid]	> 90
COc1ccc(-c2cc(=O)c3c(O)c(OC)c(O[C@@H]4O[C@H](CO[C@@H]5O[C@@H](C)[C@H](O)[C@@H](O)[C@H]5O)[C@@H](O)[C@H](O)[C@H]4O)cc3o2)cc1 [Pectolinarin]	> 90
Oc1cc(O)c2c(c1)O[C@H](c1ccc(O)c(O)c1)[C@H](O)C2 [(−)-Epicatechin]	> 90
O=C1Nc2ccccc2/C1=C1/Nc2ccccc2C1=O [Indirubin]	> 90
C=C1C(=O)[C@]23[C@H](O)[C@H]1CC[C@H]2[C@@]12CO[C@]3(O)[C@@H](O)[C@@H]1C(C)(C)CC[C@@H]2O [Oridonin]	> 90
COc1cc(O)c2c(c1)C(=O)c1cc(C)cc(O)c1C2=O [Physcion]	> 90
C=C1CC[C@@H]2[C@](C)(CO)[C@H](O)CC[C@@]2(C)[C@@H]1C/C=C1/C(=O)OC[C@H]1O [Andrographolide]	> 90
O=C1/C(=C2\Nc3ccccc3C2=O)Nc2ccccc21 [Indigo]	> 90
COc1ccc2cc3[n+](cc2c1OC)CCc1cc2c(cc1-3)OCO2 [Berberine Hydrochloride]	> 90

same assay, conditions: human, recombinant human CYP1A2, pH 7.4, probe phenacetin (25 μM), O-deethylation to acetaminophen; 1 μM test compound, 25 μM phenacetin, average of duplicate determinations; read-out: % of Control Indication Activity

Compound	activity at 1 h, 1 μM [%]
COc1cc(O)c2c(=O)c(O[C@@H]3O[C@H](CO)[C@H](O)[C@H](O)[C@H]3O)c(-c3ccc(O)c(O)c3)oc2c1 [zhang 83, rhamnetin 3-O-β-D-galactopyranoside]	> 90
CC(C)=CCC/C(C)=C/Cc1c(O)cc(O)c2c(=O)c3c(O)c4c(cc3oc12)OCO4 [zhang 89, 1,6,8-trihydroxy-2,3-methylenedioxy-5-geranylxanthone]	> 90
COc1cc(C(O)C(CO)Oc2ccc(/C=C\CO)cc2OC)ccc1O (single isomer, unassigned; (-)) [zhang 779, (−)-Threo-guaiacylglycerol-8-O-4′-(coniferyl alcohol) ether]	> 90

same assay, conditions: recombinant enzyme

Compound	% of Control Indication Activity (Mean)
COc1cc2c(cc1OC)-c1cc3ccc(OC)c(OC)c3c[n+]1CC2.[Cl-] [Palmatine Hydrochloride]	> 90

same assay, conditions: recombinant enzyme, pH 7.4

Compound	activity [%]
CN1[C@@H]2CC[C@H]1C[C@@H](OC(=O)C(CO)c1ccccc1)C2 (stereo partly shown) [Atropine Sulfate]	> 90
CN1[C@@H]2C[C@@H](OC(=O)[C@H](CO)c3ccccc3)C[C@H]1[C@@H]1O[C@@H]12 [Scopolamine Hydrobromide]	> 90

same assay, conditions: recombinant enzyme, pH 7.4; 1 μM active ingredient, Rh CYP1A2-mediated phenacetin O-deethylation, test dataset of 202 herb ingredients; read-out: % of Control Indication Activity (Mean)

Compound	activity [%]	activity at 1 h, 1 μM [%]
N#C[C@H](O[C@@H]1O[C@H](CO[C@@H]2O[C@H](CO)[C@@H](O)[C@H](O)[C@H]2O)[C@@H](O)[C@H](O)[C@H]1O)c1ccccc1 [Amygdalin]	> 90	–
CC1=C2C[C@H]3[C@@H](CC=C4C[C@@H](O)CC[C@@]43C)[C@@H]2CC[C@]12O[C@@H]1C[C@H](C)CN[C@H]1[C@H]2C [Cyclopamine]	–	> 90
O=c1ccc2cc3ccoc3cc2o1 [Psoralen]	–	10.8
O=c1ccc2ccc3occc3c2o1 [Isopsoralen]	–	> 90
C[C@@H]1C(=O)O[C@H]2C[C@@]34[C@H]5C[C@@H](C(C)(C)C)[C@]36[C@@H](OC(=O)[C@@H]6O)O[C@@]4(C(=O)O5)[C@]21O [Ginkgolide A]	> 90	–
C[C@H]1CC[C@@]2(OC1)O[C@H]1C[C@H]3[C@@H]4CC[C@@H]5C[C@@H](O)CC[C@]5(C)[C@H]4CC[C@]3(C)[C@H]1[C@@H]2C [Sarsasapogenin]	> 90	–
COc1ccc(C=O)cc1 [Anisaldehyde]	> 90	–
COC[C@@]12CC[C@H](OC)[C@]34C(C([C@H](OC)[C@H]13)[C@]1(OC(C)=O)[C@H]3[C@@H](OC(=O)c5ccccc5)[C@](O)(C[C@H]34)[C@@H](OC)[C@@H]1O)N(C)C2 [Hypaconitine]	> 90	–
c1cc2c(cc1[C@H]1OC[C@H]3[C@@H]1CO[C@@H]3c1ccc3c(c1)OCO3)OCO2 [Sesamin]	> 90	–
O=C1CCC[C@@H]2[C@H]3CCCN4CCC[C@@H](CN12)[C@@H]34 [Matrine]	> 90	–
